# In patent publication US20050042283A1, “Histamine and CCK2/gastrin receptor blockade in the treatment of acid-peptic disease and cancer” (UNIVERSITY OF MASSACHUSETTS, priority 2003, published 2005):
# How the values were obtained:
# [1] = system: H. felis-infected INS-GAS mice; test: Gastric mucosa histological evaluation and scoring; format: in vivo; details: omeprazole study, 3 months; scale 0 to 4; n = 4
# Source text: The insulin-gastrin (INS-GAS) transgenic mice (FVB/N background) have been described previously (Wang, T. C. et al., 2000; Wang T. C. et al., 1993) and were free of specific pathogens. Animals were housed in microisolator, solid-bottomed polycarbonate cages, fed a commercially prepared pelleted diet, and given water ad libitum. One hundred twenty four (124) male INS-GAS mice at 2 or 3 months of age were inoculated with Helicobacter felis (ATCC 49179) as previously described (Wang, T. C. et al., 2000). Infection status was confirmed at 14 weeks and 26 weeks post inoculation by enzyme-linked immunosorbent assay (ELISA) to measure immunoglobulin IgG antibody to H. felis, and by quantitative real-time PCR assays of gastric corpus tissue at necropsy as described below. All experiments were approved by the Institutional Animal Care and Use Committee of University of Massachusetts Medical School.
# Mice in group III were treated orally with the histamine H2 receptor antagonist loxtidine (in drinking water) at a dose of 0.5 g/L, while group IV mice received both drugs. For the 3 months drug study of inhibitory effects on maximal acid secretion, gastric atrophy, hyperplasia and dysplasia, 8 mice were prepared for each group. For the 6 months drug study of inhibitory effects on gastric carcinogenesis, 17 mice were prepared for each group.
# The proton pump inhibitor omeprazole was purchased from Sigma (St. Louis Mo.) and dissolved in dimethylsulfoxide (DMSO)/PEG300, a 1:1 mixture at the concentration of 40 mg/ml, and injected intraperitoneally daily at the dose of […] (=350 micromole/kg) for 3 months. Twenty four (24) mice were divided into four groups. Mice in group A were controls treated with vehicle only, whereas group B mice were treated with omeprazole alone. Group C and D mice were treated with combination of omeprazole and YF476 or loxtidine, respectively.
# At necropsy, linear strips extending from the squamocolumnar junction through the proximal duodenum were fixed in 10% neutral-buffered formalin, paraffin-embedded, cut at 5 microns, and stained with hematoxylin and eosin. Indices of injury in the gastric cardia/corpus and antrum were scored on an ordinal scale from 0 to 4 in increments of 0.5 by a single veterinary pathologist (A.B.R.) blinded to treatment groups. Paraffin-embedded sections were also stained with the Warthin-Starry silver staining method for detection of H.felis as previously described (Fox, J. G. et al., 2003).
# ECL cell = details: rats; Poynter et al.; cited from earlier work
# CCK-B = target: T1, CCK-B (Rattus norvegicus, UniProt P30553); details: reportedly; Lindstrom et al 1999; cited from earlier work
# T1 sequence (P30553 1-452): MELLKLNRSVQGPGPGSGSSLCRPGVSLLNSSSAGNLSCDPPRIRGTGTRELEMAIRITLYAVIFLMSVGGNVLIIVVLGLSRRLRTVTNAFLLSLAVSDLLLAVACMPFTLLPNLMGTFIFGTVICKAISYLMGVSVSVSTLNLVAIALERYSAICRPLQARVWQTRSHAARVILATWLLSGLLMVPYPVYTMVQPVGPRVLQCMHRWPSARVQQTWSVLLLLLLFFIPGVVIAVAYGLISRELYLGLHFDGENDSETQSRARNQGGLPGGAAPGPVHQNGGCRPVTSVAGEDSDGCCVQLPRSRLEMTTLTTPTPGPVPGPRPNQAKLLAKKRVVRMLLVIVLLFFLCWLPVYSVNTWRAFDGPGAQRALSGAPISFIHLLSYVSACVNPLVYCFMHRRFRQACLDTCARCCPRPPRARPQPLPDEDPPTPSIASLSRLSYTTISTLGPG
Structure (SMILES),Corpus histological score: Atrophy [1],Corpus histological score: Dysplasia [1],Corpus histological score: Hyperplasia [1],Corpus histological score: Inflammation [1] [a],Duration of administration after which ECL cell hyperplasia was seen (ECL cell) [days],Potency relative to YF476 (CCK-B)
COc1ccc2[nH]c([S+]([O-])Cc3ncc(C)c(OC)c3C)nc2c1 (stereo not drawn) [Omeprazole alone],3.13 ± 0.25,1.38 ± 0.48,2.75 ± 0.50,1.88 ± 0.63,28,–
Cc1cccc(NC(=O)N[C@@H]2N=C(c3ccccc3)c3ccccc3N(CC(=O)c3ccccc3C)C2=O)c1 [YM022],–,–,–,–,–,about 5 times
